This is an account of results in patent publication US20070092469A1, “Topically applied Glucosamine Sulfate and all its related, precursor, and derivative compounds significantly increases the skin's natural produciton of hyaluronic acid for the rejuvenation of healthier younger-looking skin; while PhosphatidylCholine is required to replace its deficiency caused by …” (priority 2005, published 2007).

The conditions of data set [1]: topical; cited from earlier work.
Another data set relates to skin's Hyaluronic Acid. The data set can be described thus: Live clinical human experiments, one side of face, neck and hands treated, other side base (placebo) lotion. The format is in vivo. Conditions: 5% concentration, topical, versus placebo lotion on other side. The text has this:
In examining the prior art we found our patent to be unique: • 1. U.S. Pat. No. 5,391,373 (Mausner) is distinguished by its failure to use an adequate amount of Glucosamine in order to achieve the substrate concentration for the enzyme Hyaluronate Synthase to produce a sufficient quantity and concentration of Hyaluronic Acid necessary to achieve any meaningful change in the texture of the skin, including its ability to hold onto sufficient water to increase internal hydration. Their patent claims: “1. (d) about 0.001% to 0.1% of a carbohydrate-based complex comprising dextran, glycine, and Glucosamine;”. […] Their minimum range amount claimed is calculated as: 0.001% (0.00001) times 5% (0.05%) equals 0.0000005, which is 0.00005% and equals 5 one-hundred-thousandths of a gram per 100 milliliters, and is totally inconsequential for having any positive effect. […]

The conditions of data set [2]: oral dose of Glucosamine Sulfate, humans; cited from earlier work.
For data set [3] the following is noted: oral, dog; cited from earlier work.
For data set [4] the following is noted: simple diffusion, not active transport; cited from earlier work.
The subject of the next data set is solar lentinges. Conditions: cited from earlier work.
For data set [5] the following is noted: topical; cited from earlier work. This is another data set of the same source.

Read-outs that look alike come from different tables or passages of the source.

For `N[C@H]1C(O)O[C@H](CO)[C@@H](O)[C@@H]1O.O=S(=O)(O)O` (stereo partly drawn) [Glucosamine Sulfate], in data set [1], the “absorption through the skin” value is given as “much better absorbed into the body via the skin”. Besides, the “production of the skin's Hyaluronic Acid” value in the data set with skin's Hyaluronic Acid is given as “markedly enhancing”. In data set [2], the absorbed entry is on record as “about 90%”. Regarding `N[C@@H]1[C@@H](O)[C@H](O)[C@@H](CO)O[C@@H]1O` [Glucosamine, 2-amino-2-deoxy-alpha-D-glucose], in data set [3], the absorbed is 87%.

In the case of `CC(=O)N[C@H]1C(O)O[C@H](CO)[C@@H](O)[C@@H]1O` (stereo partly drawn) [N-acetylglucosamine, N-acetyl-D-Glucosamine], the “absorption through the skin” value in data set [1] is “very poorly absorbed through the skin”. Moreover, the oral absorption result in data set [4] is on record as “not well absorbed orally”. Consider Ascorbyl Glucosamine, for which the “effect on skin ("liver spot") pigmentation” value in the data set on solar lentinges is “no positive effects”. Consider “hyaluronic acid [250,000 Dalton sized hyaluronic acid]”, for which the “absorption into the skin” value in data set [5] was “very low percentage”.

Take “hyaluronic acid [600,000 Dalton molecular weight hyaluronic acid]”: in data set [5], the “absorption into the skin” value is “only a few percent”.
